Square brackets hold non-standard residues; d marks the D form.

Assay [1] concerns the target human integrin αvβ3 purified protein (Homo sapiens, UniProt P05106+P06756). As to the kind of experiment: Solid-phase RGD receptor-binding assay.
The target of assay [2] is T1, recombinant human caspase 3 (Homo sapiens, UniProt P42574).
T1 sequence (P42574 29-175 limits assumed): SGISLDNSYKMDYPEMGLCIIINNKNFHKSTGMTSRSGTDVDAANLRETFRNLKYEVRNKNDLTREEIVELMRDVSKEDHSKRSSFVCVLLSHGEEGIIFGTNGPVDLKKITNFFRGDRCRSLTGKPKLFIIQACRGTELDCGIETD
T1 sequence (P42574 176-277 limits assumed): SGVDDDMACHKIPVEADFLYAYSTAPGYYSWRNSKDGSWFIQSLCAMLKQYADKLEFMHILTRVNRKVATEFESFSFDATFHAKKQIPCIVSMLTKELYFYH
To be noted: cited from earlier work; for kcat: standard fluorogenic substrates; for Km: standard substrates.

The subject of assay [3] is A549 cells. Kind of assay: Live cell NIR fluorescence microscopy. The note with it: 100 μM inhibitor, paclitaxel-treated A549 cells, 4 h. The format is cell-based, human.
The target in assay [4] is T2, human integrin αvβ3 purified protein (human), P06756.
T2 chain 1: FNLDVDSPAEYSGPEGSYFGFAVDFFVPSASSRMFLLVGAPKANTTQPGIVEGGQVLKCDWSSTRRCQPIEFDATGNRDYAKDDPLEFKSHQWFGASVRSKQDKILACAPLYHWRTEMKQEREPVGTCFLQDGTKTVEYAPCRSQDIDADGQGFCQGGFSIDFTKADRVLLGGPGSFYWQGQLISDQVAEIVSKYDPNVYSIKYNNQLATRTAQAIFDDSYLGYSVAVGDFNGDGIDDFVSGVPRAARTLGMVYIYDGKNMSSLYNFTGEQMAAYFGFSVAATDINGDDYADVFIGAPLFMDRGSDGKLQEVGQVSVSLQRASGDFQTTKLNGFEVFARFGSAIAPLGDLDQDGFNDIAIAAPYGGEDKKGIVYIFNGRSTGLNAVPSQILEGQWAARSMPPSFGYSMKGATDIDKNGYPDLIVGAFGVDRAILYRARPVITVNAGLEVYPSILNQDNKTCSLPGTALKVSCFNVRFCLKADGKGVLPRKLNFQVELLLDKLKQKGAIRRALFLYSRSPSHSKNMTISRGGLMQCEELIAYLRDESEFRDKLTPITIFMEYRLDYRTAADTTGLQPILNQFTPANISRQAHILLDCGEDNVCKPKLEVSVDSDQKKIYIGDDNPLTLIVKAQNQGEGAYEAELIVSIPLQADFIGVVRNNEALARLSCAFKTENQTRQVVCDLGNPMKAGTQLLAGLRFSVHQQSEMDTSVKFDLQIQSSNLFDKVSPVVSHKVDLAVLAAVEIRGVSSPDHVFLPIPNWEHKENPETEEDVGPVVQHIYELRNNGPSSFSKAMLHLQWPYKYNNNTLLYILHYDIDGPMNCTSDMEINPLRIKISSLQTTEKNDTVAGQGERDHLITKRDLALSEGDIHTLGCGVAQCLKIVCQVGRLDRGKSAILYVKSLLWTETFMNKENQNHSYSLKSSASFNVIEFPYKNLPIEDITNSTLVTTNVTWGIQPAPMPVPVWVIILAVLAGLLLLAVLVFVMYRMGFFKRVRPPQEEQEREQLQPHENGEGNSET
T2 chain 2: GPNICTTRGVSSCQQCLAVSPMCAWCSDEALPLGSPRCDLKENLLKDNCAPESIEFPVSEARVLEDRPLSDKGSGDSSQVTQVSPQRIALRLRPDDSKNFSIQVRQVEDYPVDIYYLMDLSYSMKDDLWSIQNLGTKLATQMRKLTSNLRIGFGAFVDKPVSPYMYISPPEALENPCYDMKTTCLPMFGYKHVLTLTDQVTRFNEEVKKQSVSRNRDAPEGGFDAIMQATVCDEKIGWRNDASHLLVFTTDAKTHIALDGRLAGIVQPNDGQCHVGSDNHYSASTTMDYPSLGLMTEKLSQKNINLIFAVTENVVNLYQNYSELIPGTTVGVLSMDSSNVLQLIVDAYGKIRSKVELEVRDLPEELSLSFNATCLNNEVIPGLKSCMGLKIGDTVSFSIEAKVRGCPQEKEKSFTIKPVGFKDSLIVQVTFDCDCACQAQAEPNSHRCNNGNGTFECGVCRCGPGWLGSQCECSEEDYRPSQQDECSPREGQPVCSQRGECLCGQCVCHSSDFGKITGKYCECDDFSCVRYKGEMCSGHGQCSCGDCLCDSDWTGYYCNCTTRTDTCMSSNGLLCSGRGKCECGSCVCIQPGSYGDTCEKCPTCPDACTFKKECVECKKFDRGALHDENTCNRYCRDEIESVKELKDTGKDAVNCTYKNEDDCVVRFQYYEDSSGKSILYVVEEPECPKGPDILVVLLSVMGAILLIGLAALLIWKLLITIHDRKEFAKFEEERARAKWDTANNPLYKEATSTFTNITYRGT
As to the kind of experiment: radioligand binding. To be noted: remark: other sources report otherwise.

The target in assay [5] is human integrin αvβ3 purified protein (human, UniProt P06756 31-1048; P05106 27-788). Kind of assay: radioligand binding.

Take Cypate-c(RGDfK) [LS167]: the Ki in assay [1] (read-out: Ki (nM ± s.d.), corrected Ki, modified Cheng-Prusoff equation, 125I-c(RGDyK) tracer) was determined as 1.62 ± 0.491 nM.
For the molecule cypate-octreotate, the “decrease in the binding affinity” value in assay [1] (non-RGD peptide control) is more than 100 fold.
In the case of Ac-DEVD-AMC, in assay [2], the kcat was 0.75 s⁻¹ and the Michaelis constant (Km) is 9.7 µM.
Z-Asp(Ome)-Glu(Ome)-Val-Asp(OMe)-FMK: the “effect of caspase-3 inhibitor on LS422 fluorescence activation” value in assay [3] is “inability to activate the LS422 fluorescence”.
Turning to Ac-DEVD-pNA, in assay [2], the catalytic constant (kcat) is 2.4 s⁻¹ and the Km is 11 µM.
In assay [4], cyclo(RGD[dF]K) (also: cypate label, position not given here) [LS167 (Cypate-c(RGDfK))] returned a Ki of 1.62 nM.
The molecule cyclo(RGD[dY]K) (also: 125I label, site not given here) [125I-c(RGDyK)] showed a Kd in assay [5] of 0.4 nM.

The values are drawn from publication PMC8356907 (Current analytical chemistry, 2021).
